Values of other authors, collected in US20170202932A1, “METHODS FOR INHIBITING NEURON APOPTOSIS AND NECROSIS” (NEWSOUTH INNOVATIONS PTY LIMITED, priority 2012, published 2017).

What was measured:
other TRPC channels = conditions: cited from earlier work
TRPC3 = target: T1, TRPC3 (Homo sapiens, UniProt Q13507); conditions: cited from earlier work
T1 sequence (Q13507 1-921): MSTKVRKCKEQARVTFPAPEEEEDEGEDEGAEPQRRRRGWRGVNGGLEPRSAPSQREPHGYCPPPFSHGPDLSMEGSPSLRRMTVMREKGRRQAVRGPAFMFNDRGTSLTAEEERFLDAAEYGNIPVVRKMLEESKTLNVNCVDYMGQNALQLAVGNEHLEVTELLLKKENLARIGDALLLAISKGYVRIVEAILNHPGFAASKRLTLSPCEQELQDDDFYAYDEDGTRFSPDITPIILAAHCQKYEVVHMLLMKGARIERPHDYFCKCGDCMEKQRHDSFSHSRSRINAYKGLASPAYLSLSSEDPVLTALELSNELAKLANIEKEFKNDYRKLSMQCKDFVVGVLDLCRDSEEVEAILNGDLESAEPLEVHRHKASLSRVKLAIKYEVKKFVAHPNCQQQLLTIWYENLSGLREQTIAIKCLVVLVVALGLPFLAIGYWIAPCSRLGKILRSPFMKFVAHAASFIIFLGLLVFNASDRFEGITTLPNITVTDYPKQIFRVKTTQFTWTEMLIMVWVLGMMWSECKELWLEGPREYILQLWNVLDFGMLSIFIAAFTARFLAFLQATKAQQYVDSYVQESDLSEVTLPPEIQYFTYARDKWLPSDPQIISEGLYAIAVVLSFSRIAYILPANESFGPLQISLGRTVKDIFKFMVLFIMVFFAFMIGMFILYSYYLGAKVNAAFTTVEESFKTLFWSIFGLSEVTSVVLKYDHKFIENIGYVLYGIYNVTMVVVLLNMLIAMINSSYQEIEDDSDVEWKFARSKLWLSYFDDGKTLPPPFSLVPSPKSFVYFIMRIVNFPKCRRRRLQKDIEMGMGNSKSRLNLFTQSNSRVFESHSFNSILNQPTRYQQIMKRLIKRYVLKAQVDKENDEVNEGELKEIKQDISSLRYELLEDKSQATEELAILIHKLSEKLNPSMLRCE

## CCOC(=O)c1cnn(-c2ccc(NC(=O)C(Cl)=C(Cl)Cl)cc2)c1C(F)(F)F [Pyr3, ethyl-1-(4-(2,3,3-trichloroacrylamide)phenyl)-5-(trifluoromethyl)-1H-pyrazole-4-carboxylate]
Other TRPC channels
  effect on other TRPC channels: no effect
TRPC3
  inhibition of TRPC3-mediated Ca2+ influx: selectively inhibit
